Assay results as given in ChEMBL document CHEMBL1152749, “Haemolytic activity, cytotoxicity and membrane cell permeabilization of semi-synthetic and natural lupane- and oleanane-type saponins” (Bioorg Med Chem, 2009).

What was measured:
DLD-1 [1] = test: Cytotoxicity against human DLD1 cells after 48 hrs by resazurin reduction test; assay type: functional, cell-based; conditions: DLD-1, 48 h
[2] = Cell membrane permeabilization in human WS1 cells assessed as drug level causing decrease in calcein fluorescence; assay type: ADME, cell-based
[3] = Toxicity in sheep erythrocytes assessed as induction of hemolysis; assay type: cell-based, Ovis aries, Erythrocyte; conditions: read-out: HD50 (the source's name)
[4] = Cytotoxicity against human WS1 cells after 48 hrs by resazurin reduction test; assay type: cell-based; conditions: WS1, 48 h
A549 [5] = test: Cell membrane permeabilization in human A549 cells assessed as drug level causing decrease in calcein fluorescence; assay type: ADME, cell-based
A549 [6] = test: Cytotoxicity against human A549 cells after 48 hrs by resazurin reduction test; assay type: functional, cell-based; conditions: A549, 48 h
DLD-1 [7] = test: Cell membrane permeabilization in human DLD1 cells assessed as drug level causing decrease in calcein fluorescence; assay type: ADME, cell-based

SMILES | IC50 [2] [µM] | IC50 (A549 [5]) [µM] | IC50 (DLD-1 [7]) [µM] | IC50 (DLD-1 [1]) [µM] | HC50 [3] [µM] | IC50 [4] [µM] | IC50 (A549 [6]) [µM]
C[C@@H]1O[C@@H](O[C@H]2[C@H](O[C@H]3CC[C@@]4(C)[C@@H](CC[C@]5(C)[C@@H]4CC=C4[C@@H]6CC(C)(C)CC[C@]6(C(=O)O)CC[C@]45C)[C@]3(C)CO)OC[C@H](O)[C@@H]2O)[C@H](O)[C@H](O)[C@H]1O [ALPHA-HEDERIN] | 24 | 28 | 38 | 60 | 10 | 30 | 33
C[C@@H]1O[C@@H](O[C@H]2[C@H](O[C@H]3CC[C@@]4(C)[C@@H](CC[C@]5(C)[C@@H]4CC=C4[C@@H]6CC(C)(C)CC[C@]6(C(=O)O)CC[C@]45C)[C@]3(C)CO)OC[C@H](O[C@@H]3O[C@H](CO)[C@@H](O)[C@H](O)[C@H]3O)[C@@H]2O)[C@H](O)[C@H](O)[C@H]1O [HEDERACOLCHISIDE A] | 86 | 110 | 159 | 62 | 22 | 58 | 59
CC1(C)CC[C@]2(C(=O)O)CC[C@]3(C)C(=CC[C@@H]4[C@@]5(C)CC[C@H](O)[C@@](C)(CO)[C@@H]5CC[C@]43C)[C@@H]2C1 [HEDERAGENIN] | > 200 | > 200 | > 200 | > 100 | > 100 | 77 | 39
CC1(C)CC[C@]2(C(=O)O)CC[C@]3(C)C(=CC[C@@H]4[C@@]5(C)CC[C@H](O[C@@H]6O[C@H](CO)[C@@H](O)[C@H](O)[C@H]6O)[C@@](C)(CO)[C@@H]5CC[C@]43C)[C@@H]2C1 [Hederagenin-3-O-beta-D-glucopyranoside] | 102 | 65 | 89 | 59 | 16 | 32 | 59
CC1(C)CC[C@]2(C(=O)O)CC[C@]3(C)C(=CC[C@@H]4[C@@]5(C)CC[C@H](O)C(C)(C)[C@@H]5CC[C@]43C)[C@@H]2C1 [OLEANOLIC_ACID] | > 200 | > 200 | > 200 | > 100 | > 100 | > 100 | 27

Further lines, with some results ahead:

IC50 [2] [µM] | IC50 (A549 [5]) [µM] | IC50 (DLD-1 [7]) [µM] | SMILES | IC50 (DLD-1 [1]) [µM] | HC50 [3] [µM] | IC50 [4] [µM] | IC50 (A549 [6]) [µM]
> 200 | > 200 | > 200 | C=C(C)[C@@H]1CC[C@]2(C(=O)O)CC[C@]3(C)[C@H](CC[C@@H]4[C@@]5(C)CC[C@H](O[C@@H]6OC[C@H](O)[C@H](O)[C@H]6O[C@@H]6O[C@@H](C)[C@H](O)[C@@H](O)[C@H]6O)C(C)(C)[C@@H]5CC[C@]43C)[C@@H]12 | > 100 | 78 | > 100 | > 100
> 200 | > 200 | > 200 | C=C(C)[C@@H]1CC[C@]2(C(=O)O[C@@H]3O[C@H](CO)[C@@H](O)[C@H](O)[C@H]3O)CC[C@]3(C)[C@H](CC[C@@H]4[C@@]5(C)CC[C@H](O[C@@H]6OC[C@H](O)[C@H](O)[C@H]6O[C@@H]6O[C@@H](C)[C@H](O)[C@@H](O)[C@H]6O)C(C)(C)[C@@H]5CC[C@]43C)[C@@H]12 | > 50 | > 100 | > 50 | > 50
> 200 | > 200 | > 200 | C=C(C)[C@@H]1CC[C@]2(C(=O)O)CC[C@]3(C)[C@H](CC[C@@H]4[C@@]5(C)CC[C@H](O[C@@H]6OC[C@H](O[C@@H]7O[C@H](CO)[C@@H](O)[C@H](O)[C@H]7O)[C@H](O)[C@H]6O[C@@H]6O[C@@H](C)[C@H](O)[C@@H](O)[C@H]6O)C(C)(C)[C@@H]5CC[C@]43C)[C@@H]12 | > 50 | 94 | > 50 | > 50
> 200 | > 200 | > 200 | C=C(C)[C@@H]1CC[C@]2(CO)CC[C@]3(C)[C@H](CC[C@@H]4[C@@]5(C)CC[C@H](O[C@@H]6OC[C@H](O)[C@H](O)[C@H]6O[C@@H]6O[C@@H](C)[C@H](O)[C@@H](O)[C@H]6O)C(C)(C)[C@@H]5CC[C@]43C)[C@@H]12 | > 100 | > 100 | > 100 | > 100
3 | 4 | 4 | C[C@@H]1O[C@@H](O[C@H]2[C@H](O[C@H]3CC[C@]4(C)[C@H]5CC=C6[C@@H]7CC(C)(C)CC[C@]7(C(=O)O)CC[C@@]6(C)[C@]5(C)CC[C@H]4C3(C)C)OC[C@H](O[C@@H]3O[C@H](CO)[C@@H](O)[C@H](O)[C@H]3O)[C@@H]2O)[C@H](O)[C@H](O)[C@H]1O [HEDERACOLCHISIDE A1] | 16 | 1.7 | 5.7 | 15
